Assay results reported in ChEMBL document CHEMBL4411281, “Unravel a neuroactive sHA sulfation pattern with neurogenesis activity by a library of defined oligosaccharides” (Eur J Med Chem, 2019).
pKd: −log10 of the molar value. The source made the active and inactive calls. No cut-off for these calls is given here.

Tests used:
[1] = target: T1, Neurotrophic factor BDNF precursor form (Homo sapiens) (UniProt P23560); assay: Binding affinity to BDNF (unknown origin) at 800 nM by SPR assay
T1 sequence (whole entry): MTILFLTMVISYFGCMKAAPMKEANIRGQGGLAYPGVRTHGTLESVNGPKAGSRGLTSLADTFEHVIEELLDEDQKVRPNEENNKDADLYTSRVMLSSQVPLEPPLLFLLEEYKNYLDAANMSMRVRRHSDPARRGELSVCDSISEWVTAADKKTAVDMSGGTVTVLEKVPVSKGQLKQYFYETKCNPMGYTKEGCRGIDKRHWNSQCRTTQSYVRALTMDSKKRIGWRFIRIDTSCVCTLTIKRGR

[2] = target: T2, Midkine (Homo sapiens) (UniProt P21741); assay: Binding affinity to MDK (unknown origin) at 800 nM by SPR assay
T2 sequence (whole entry): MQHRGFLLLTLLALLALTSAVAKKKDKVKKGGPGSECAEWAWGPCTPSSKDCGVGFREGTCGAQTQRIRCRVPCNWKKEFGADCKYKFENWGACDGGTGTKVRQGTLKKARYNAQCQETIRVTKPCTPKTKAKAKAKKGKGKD

[3] = target: T3, Pleiotrophin (Homo sapiens) (UniProt P21246); assay: Binding affinity to PTN (unknown origin) at 800 nM by SPR assay
T3 sequence (whole entry): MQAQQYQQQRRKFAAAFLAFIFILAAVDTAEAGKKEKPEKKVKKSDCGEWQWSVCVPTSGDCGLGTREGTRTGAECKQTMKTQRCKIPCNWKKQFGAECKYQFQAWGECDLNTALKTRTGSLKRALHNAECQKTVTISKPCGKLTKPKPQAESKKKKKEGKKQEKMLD

[4] = target: Fibroblast growth factor 1 (Homo sapiens) (UniProt P05230); assay: Binding affinity to FGF-1 (unknown origin) at 800 nM by SPR assay
Chain of Fibroblast growth factor 1 (Homo sapiens) (P05230 whole entry): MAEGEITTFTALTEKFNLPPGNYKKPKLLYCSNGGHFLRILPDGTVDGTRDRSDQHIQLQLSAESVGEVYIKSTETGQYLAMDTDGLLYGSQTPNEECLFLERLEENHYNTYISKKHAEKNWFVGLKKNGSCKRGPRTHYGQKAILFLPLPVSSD

[5] = Induction of neurite outgrowth in Sprague-Dawley E18 rat hippocampal neurons assessed as neurite length after 24 hrs by DAPI staining-based assay relative to control; assay type: functional, Hippocampal neurone
[6] = target: T4, Neurotrophic factor BDNF precursor form (Homo sapiens, UniProt P23560); assay: Binding affinity to BDNF (unknown origin) by SPR assay
T4 sequence (P23560 whole entry): T1 sequence (whole entry)

[7] = target: T5, Midkine (Homo sapiens, UniProt P21741); assay: Binding affinity to MDK (unknown origin) by SPR assay
T5 sequence (P21741 whole entry): T2 sequence (whole entry)

[8] = target: T6, Pleiotrophin (Homo sapiens, UniProt P21246); assay: Binding affinity to PTN (unknown origin) by SPR assay
T6 sequence (P21246 whole entry): T3 sequence (whole entry)

[9] = system: Hippocampal neurone; assay: Induction of neurite outgrowth in Sprague-Dawley E18 rat hippocampal neurons assessed as neurite length at 250 ug/ml solubilized in culture media after 24 hrs by DAPI staining-based assay relative to control; assay type: functional, cell-based
[10] = system: Hippocampal neurone; assay: Induction of neurite outgrowth in Sprague-Dawley E18 rat hippocampal neurons assessed as neurite length at 50 ug/ml in presence of Proteus vulgaris Chondroitinase ABC after 12 hrs by DAPI staining-based assay relative to control; assay type: functional, cell-based
[11] = system: Hippocampal neurone; assay: Induction of neurite outgrowth in Sprague-Dawley E18 rat hippocampal neurons assessed as neurite length after 24 hrs in presence of anti-MDK antibody by DAPI staining-based assay relative to control; assay type: functional, cell-based
[12] = system: Hippocampal neurone; assay: Induction of neurite outgrowth in Sprague-Dawley E18 rat hippocampal neurons assessed as neurite length after 24 hrs in presence of anti-BDNF antibody by DAPI staining-based assay relative to control; assay type: functional, cell-based

Activity [1] | Activity [2] | Activity [3] | Activity [4] | pKd [6] | pKd [7] | pKd [8] | Activity [10] | Compound | Activity [5] | Activity [9] | Activity [11] | Activity [12]
– | – | – | inactive | 6.81 | 7.02 | 6.44 | inactive | CC(=O)N[C@H]1[C@H](O[C@H]2[C@H](O)[C@@H](O)[C@H](O[C@@H]3[C@@H](NC(C)=O)[C@H](OCCCCCCN=[N+]=[N-])O[C@H](COS(=O)(=O)O)[C@@H]3OS(=O)(=O)O)O[C@@H]2C(=O)O)O[C@H](COS(=O)(=O)O)[C@H](OS(=O)(=O)O)[C@@H]1O[C@@H]1O[C@H](C(=O)O)[C@@H](O)[C@H](O)[C@H]1O | 29.6% | inactive | – | –
inactive | inactive | inactive | inactive | – | – | – | – | CC(=O)N[C@H]1[C@H](O[C@H]2[C@H](O)[C@@H](O)[C@H](O[C@@H]3[C@@H](NC(C)=O)[C@H](OCCCCCCN=[N+]=[N-])O[C@H](CO)[C@H]3OS(=O)(=O)O)O[C@@H]2C(=O)O)O[C@H](CO)[C@@H](OS(=O)(=O)O)[C@@H]1O[C@@H]1O[C@H](C(=O)O)[C@@H](O)[C@H](O)[C@H]1O | – | – | – | –
– | inactive | inactive | inactive | 6.18 | – | – | – | CC(=O)N[C@H]1[C@H](O[C@H]2[C@H](O)[C@@H](O)[C@H](O[C@@H]3[C@@H](NC(C)=O)[C@H](OCCCCCCN=[N+]=[N-])O[C@H](COS(=O)(=O)O)[C@H]3OS(=O)(=O)O)O[C@@H]2C(=O)O)O[C@H](COS(=O)(=O)O)[C@@H](OS(=O)(=O)O)[C@@H]1O[C@@H]1O[C@H](C(=O)O)[C@@H](O)[C@H](O)[C@H]1O | 6.7% | – | – | –

The remaining lines, values behind:

Compound | Activity [1] | Activity [2] | Activity [3] | Activity [4] | pKd [6] | pKd [7] | pKd [8] | Activity [10] | Activity [5] | Activity [9] | Activity [11] | Activity [12]
CC(=O)N[C@H]1[C@H](O[C@H]2[C@H](O)[C@@H](O)[C@H](O[C@H]3[C@H](O)[C@@H](CO)O[C@@H](OCCCCCCN=[N+]=[N-])[C@@H]3NC(C)=O)O[C@@H]2C(=O)O)O[C@H](CO)[C@@H](O)[C@@H]1O[C@@H]1O[C@H](C(=O)O)[C@@H](O)[C@H](O)[C@H]1O | inactive | inactive | inactive | inactive | – | – | – | – | – | – | – | –
CC(=O)N[C@H]1[C@H](O[C@H]2[C@H](O)[C@@H](O)[C@H](O[C@H]3[C@H](O)[C@@H](COS(=O)(=O)O)O[C@@H](OCCCCCCN=[N+]=[N-])[C@@H]3NC(C)=O)O[C@@H]2C(=O)O)O[C@H](COS(=O)(=O)O)[C@@H](O)[C@@H]1O[C@@H]1O[C@H](C(=O)O)[C@@H](O)[C@H](O)[C@H]1O | – | – | – | inactive | 6.31 | 7.28 | 7.11 | – | 27.3% | inactive | inactive | inactive
CC(=O)N[C@H]1[C@H](O[C@H]2[C@H](O)[C@@H](O)[C@H](O[C@H]3[C@@H](O)[C@@H](COS(=O)(=O)O)O[C@@H](OCCCCCCN=[N+]=[N-])[C@@H]3NC(C)=O)O[C@@H]2C(=O)O)O[C@H](COS(=O)(=O)O)[C@H](O)[C@@H]1O[C@@H]1O[C@H](C(=O)O)[C@@H](O)[C@H](O)[C@H]1O | inactive | inactive | inactive | inactive | – | – | – | – | 1% | – | – | –
